The text below walks through data of patent publication US20240057617A1, “COMPOSITIONS AND METHODS FOR MEALYBUG MONITORING AND CONTROL” (The State of Israel, Ministry of Agriculture & Rural …, priority 2019, published 2024).

For assay [1], the system named is N. viridis males. Briefly: Petri dish choice bioassay (arrestment of males on impregnated paper disks). It counts as in vivo, Nipaecoccus viridis. The conditions noted are these: for mean number of males attracted to bait (arrested on paper disk): 10 ng on filter paper disk, 24 males released, counted after 1 h, mean ±SE, n=6. The procedure: Insects. N. viridis populations were collected from two citrus groves in Israel, in West Negev and the […] areas. These populations were used to establish a colony on sprouted potatoes (Solanum tuberosum) in a rearing room at 25±1° C., 50-60% relative humidity, and under a photoperiod of […]:10D. First stage larval instars were separated to a different cage and emerged adult males were removed manually each day (Levi-Zada et al. 2014). Adult females, 10 days after the last molt, were transferred to clean potato sprouts for further use in experiments. Behavioral Bioassays. The two putative female sex pheromone components and their 1:1 mixture were tested in 14-cm diameter glass Petri dish arenas (Mendel et al. 2012). Four filter paper disks (5-mm diameter, Whatman No. 1) impregnated with 1 μl n-hexane solutions containing 10 ng γ-necrodol (I), 10 ng γ-necrodyl isobutyrate (II), 5 ng of each I+II combined, and solvent only (control) were equally spaced in random order on the periphery of the arena in each test (n=6). Twenty-four males were released in each of the tests at the center of a Petri dish and after 1 h the number of males found on each paper disk was recorded. […] If a significant difference was found then post-hoc pairwise Conover tests with Bonferroni correction for multiple comparisons was performed (same PMCMR package).

The test system of assay [2] is N. viridis males. Put plainly: Flight bioassay with baited sticky traps in rearing room. In kind it is in vivo, Nipaecoccus viridis. The conditions noted are these: for average males caught on sticky trap: 20 μg in polyethylene vial, 12 days, mean ±SE, N=12; for statistical comparison of male catches per day with control: Kruskal-Wallis P=0.001, Conover's test at α=0.05. The procedure: Insects. N. viridis populations were collected from two citrus groves in Israel, in West Negev and the Galilee areas. These populations were used to establish a colony on sprouted potatoes (Solanum tuberosum) in a rearing room at 25±1° C., 50-60% relative humidity, and under a photoperiod of 14L:10D. First stage larval instars were separated to a different cage and emerged adult males were removed manually each day (Levi-Zada et al. 2014). Adult females, 10 days after the last molt, were transferred to clean potato sprouts for further use in experiments.
Flight bioassays of males compared the attractiveness of the female produced components in a 3×3 m^2 rearing room in which a colony of mealybugs, in several open plastic containers, was placed on the floor in the center. Traps consisting of white cards (18×10 cm^2) covered with 80% polyisobutene adhesive (Rimifoot, Rimi, Petah Tikva, Israel) were baited with 0.5 ml 5×8 mm ID×OD polyethylene vials (Just Plastic, Norfolk, UK) containing either 20 μg of γ-necrodol (I), γ-necrodyl isobutyrate (II), their mixture (I+II, 20 μg each), each in 200 μl n-hexane solution, or only 200 μl n-hexane control. The baited traps were hung at 1.2 m height, separated by 2.8 m and were rotated in position every day for 12 days. The Kruskal-Wallis rank sum test and post-hoc Conover tests above were used to compare catches on treatments for statistical differences.

Consider γ-necrodyl isobutyrate [compound II], for which the “mean number of males attracted to bait (arrested on paper disk)” value with N. viridis males [1] is 3.16±0.7 males. In addition, the “statistical comparison of male arrestment with control” value in the assay on N. viridis males [1] (Kruskal-Wallis, post-hoc Conover tests with Bonferroni correction, all P<0.0001) is “significantly different from I or control”. In addition, in the assay on N. viridis males [2], the “average males caught on sticky trap” value was 654±178 males per day and the “statistical comparison of male catches per day with control” value is listed as “significantly more”.
On to `CC1=C(C)C(C)(C)C(CO)C1` (stereo not shown) [compound I, 2,2,3,4-tetramethyl-3-cyclopentene-1-methanol], for which, in the assay with N. viridis males [1], the “mean number of males attracted to bait (arrested on paper disk)” value was found to be 0.5±0.2 males. In the assay with N. viridis males [2], the “average males caught on sticky trap” value amounted to 139±41 males per day and the “statistical comparison of male catches per day with control” value is “not significantly different”.
